This is an account of results in PMC2725291, “Genetic and Molecular Basis of Individual Differences in Human Umami Taste Perception” (PLoS ONE, 2009).

This experiment concerns TAS1R1/TAS1R3 variants. Briefly: Ca2+ imaging (FlexStation II), comparison across receptor variants (AR, TR, AC, TC). The format is cell-based, human. Particulars: MSG alone. The text has this:
Intronless human TAS1Rs and Gαl6 expression constructs were generated in the pEF-DEST51 Gateway vector (Invitrogen) by genomic DNA-based methods. To subclone each gene into the vector, a Kozak cassette was introduced at the 5′ end before the start codon. Gαl6 chimeras were generated by PCR with mutagenic primers. The carboxyl-terminal tail of Gαl6, five-residue (EINLL) was replaced by its counterpart from Gαi3 (ECGLY; Gα16-i3), Gαgust (DCGLF; Gα16-gust), and Gα16-gust44 was generated as described. The integrity of all DNA constructs was confirmed by DNA sequencing. Point mutations in TAS1Rs were made using the same overlapping PCR strategy with mutagenic primers.
HEK293 cells were cultured at 37°C under a humidified atmosphere containing 5% CO2 in Dulbecco's modified Eagle's medium supplemented with 10% fetal bovine serum. To obtain reproducible Ca^2+ responses, cells were split every 2 days before cells become confluent. Cells were discarded after 2 months of passages and new cells were prepared from frozen-stock. For calcium imaging experiments, cells were seeded onto a 35 mm recording chamber or poly-D-lysine coated 96-well black-wall, clear-bottom recording plates. After 24 hrs at 37°C, confluent cells (60∼70%) were washed in OptiMEM medium supplemented with GlutaMAX-I (invitrogen) and plasmid DNAs were transiently cotransfected into HEK293 cells using Lipofectamine2000 regent (invitrogen) (2.0 µl per 1.0 µg DNA). […]
Student's t-test was used for detection of differences in the mean recognition thresholds between males and females. […] The mean values (the center±S.E. of gaussian curve on X-axis) in the distribution of recognition thresholds defined by TAS1R1/TAS1R3 haplotypes (TAS1R1-372A/TAS1R3-757R homozygotes, TAS1R1-372T/TAS1R3-757R homozygotes, homo- and heterozygotes containing TAS1R3-757C) were calculated using gauss fit function of Origin 5.0 (OriginLab Corp). For Ca^2+ imaging analysis, data were normalized to response to 10 µM ISO, and mean values (±S.E.) were calculated from 10∼18 independent analyses.

For `N[C@@H](CCC(=O)O)C(=O)[O-].[Na+]` [MSG, monosodium glutamate], the “more sensitive responses (EC50 comparison) of 372T/757R (TR) compared to the other variants (AR, AC and TC)” value was “about 1.5 fold”. The EC50 (commonly the midpoint of the concentration-response curve) (the other variants (AR, AC and TC)) was 27.6 to 32.2 mM.
